# Assay results from patent US10179770B2, “Quinolines derivatives as novel anticancer agents” (GENOSCIENCE PHARMA, priority 2013, dated 2019).
# Key:
# Type in all cases: cell-based
# [1] = tested on: SK-MEL-28; test: EC50 determination in cancer cell lines; details: Homo sapiens, 72 h
# How it was run: (§1)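 Cells were exposed to compounds for 72 h in a constant vehicle (DMSO or H2O) percentage. Growth was read by absorbance: MTS (CellTiter 95 Aqueous One) for adherent HepG2 and SK-MEL-28, sulforhodamine B for suspension KG-1 and MOLM-14. EC50 is the dose giving 50% of vehicle absorbance, mean of ≥2 experiments.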
# [2] = tested on: SK-MEL-5; test: EC50 determination in cancer cell lines; details: Homo sapiens, 72 h
# How it was run: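 Treatment lasts 72 h at a fixed vehicle content of DMSO or H2O. The readout is MTS for adherent cells and SRB for suspension cells. Each EC50 is the concentration halving absorbance relative to vehicle.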
# [3] = tested on: MOLM-14; test: EC50 determination in cancer cell lines; details: Homo sapiens, 72 h
# How it was run: as §1
# [4] = tested on: KG-1; test: EC50 determination in cancer cell lines; details: Homo sapiens, 72 h
# How it was run: as §1
# [5] = tested on: MOLM-14 cell line; test: Growth inhibition assay of MOLM-14 (CellTiter-Glo, example 63); details: Homo sapiens, 48 h, method of example 63
# Description: MOLM-14 cell line was cultured in RPMI-1640 Medium supplemented with 10% v/v Fetal Bovine Serum (FBS), 1% Penicillin-Streptomycin and maintained at 37° C. with 5% CO2. 10,000 cells were plated onto 96-well plates immediately before the assay.
# Each compound was added at different concentrations (combinations of six concentrations) to each well, and cell cultures were incubated for 48 h. Vehicle (H2O) was used as a control, and all compounds were tested in a constant percentage of vehicle. Cell outgrowth was measured using the CellTiter-Glo luminescent cell viability assay as described by the manufacturer (Promega, Ref G7571 Madison, Wis., USA) using a Centro (Berthold, France) plate reader.
# In each experiment, each point represents the average of triplicates in cell culture.
# The experimental data are analyzed using a computer program, Graphpad Prism (GraphPad Software, Inc. La Jolla, Calif.) and EC50 values were determined as the dose of compound required to reduce absorbance values to 50% of the signal obtained for vehicle treated cell cultures.
SMILES,EC50 [1],EC50 [2],EC50 [3],EC50 [4],EC50 [5]
"CC(C)(C)NC1CCN(c2cc(-c3ccc(Cl)cc3)nc3ccccc23)CC1.Cl.Cl [XII-4, 2-(4-chloro-phenyl)-4-(4-N-tert-butylamino-piperidin-1-yl)quinoline dihydrochloride]",3 µM,5 µM,3 µM,4 µM,
"Cc1ccc(-c2cc(N3CCC(NC(C)(C)C)CC3)c3ccccc3n2)cc1.Cl.Cl [XIII-8, 2-(4-methyl-phenyl)-4-(4-N-tert-butylamino-piperidin-1-yl)quinoline dihydrochloride]",5 µM,7 µM,3 µM,9 µM,6 µM
"CCN(CC)C1CCN(C(C)c2cc(-c3ccccc3)nc3ccccc23)CC1.Cl.Cl (stereo not drawn) [XIX-3, 2-phenyl-4-{1-[4-(N,N-diethylamino)piperidin-1-yl]-eth-1-yl}quinoline dihydrochloride]",6 µM,6 µM,11 µM,14 µM,22 µM
"CCN(CC)C1CCN(C(C)c2cc(-c3ccc4ccccc4c3)nc3ccccc23)CC1.Cl.Cl (stereo not drawn) [XXIV-3, 2-(2-naphtyl)-4-{1-[4-(N,N-diethylamino)-piperidin-1-yl]-eth-1-yl}quinoline dihydrochloride]",3 µM,3 µM,4 µM,4 µM,
